Our source for the IC50 and EC50 values is patent US20240059673A1, “SUBSTITUTED INDOLE COMPOUNDS” (Gilead Sciences, Inc., priority 2020, published 2024).

Assay [1] has as its target cloned hERG potassium channel (Homo sapiens, UniProt Q12809). Description: hERG FASTPatch assay (QPatch patch clamp). In kind it is cell-based. As to conditions: hERG stably expressed in cells; 1, 3, 10 and 30 uM; room temperature; Table 3. As for the experimental part: Human Ether-à-go-go-Related Gene (hERG) Assay
The FASTPatch® Assay (Charles River) was used to examine the in vitro effects of the compounds provided herein on the cloned hERG potassium channel encoded by the KCNHI2 gene and stably expressed in ITEK293T cells. Vehicle, test and control article formulations were prepared by diluting DMSO stock solutions in TIB-PS (HEPES-buffered physiological saline solution) and were delivered to cells via the QPatch robot pipetting system to a final concentration of 0.3% DMSO. Test compound final concentrations of 1, 3, 10 and 30 uM were applied to cells (n≥3, where n=the number of cells/concentration) in ascending order in at least three minute intervals separated by solution exchange. The positive control, 50 nM cisparide, was applied in the same manner. Cell membrane currents were recorded at room temperature with up to 48 parallel patch clamp amplifiers in the QPatch HT® or QPatch HTX® system, and only cells with validated whole-cell recordings (seal resistance ≥200 MQ and leak current ≤25% channel current) were used. Onset and block of hERG current was measured using a stimulus voltage pattern consisting of a 500 ms prepulse to −40 mV, a 2-second activating pulse to +40 mV, followed by a 2-second test pulse to −40 mV. The pulse pattern was repeated continuously at 10-second intervals from a holding potential of −80 mV. % Block={1−1/[1+([Test]/IC50)^N]}*100% Where [Test] is the concentration of test article, IC50 is the concentration of the test article producing half-maximal inhibition, N is the Hill coefficient and % Block is the percentage of current inhibited at each concentration of the test article. Nonlinear least squares fits will be solved with the Solver add-in for Excel 2000 or later (Microsoft, Redmon, WA). TurboSol analysis for test compound solubility was performed for each concentration tested using a Nephelostar reader measuring light scatter from a 635 nm laser source. Based on validation experiments, light scatter above four times the background level was considered an indication of the presence of particles in suspension.
The hERG IC50 values are provided below in Table 3.

The target of assay [2] is T1, TLR8 (Homo sapiens, UniProt Q9NR97).
T1 construct: lymphocytes, monocytes and dendritic cells that express TLR7, TLR8 and TLR9; endogenous in cells; host or cells: cryopreserved human PBMCs from healthy donors
T1 sequence (Q9NR97 27-1041): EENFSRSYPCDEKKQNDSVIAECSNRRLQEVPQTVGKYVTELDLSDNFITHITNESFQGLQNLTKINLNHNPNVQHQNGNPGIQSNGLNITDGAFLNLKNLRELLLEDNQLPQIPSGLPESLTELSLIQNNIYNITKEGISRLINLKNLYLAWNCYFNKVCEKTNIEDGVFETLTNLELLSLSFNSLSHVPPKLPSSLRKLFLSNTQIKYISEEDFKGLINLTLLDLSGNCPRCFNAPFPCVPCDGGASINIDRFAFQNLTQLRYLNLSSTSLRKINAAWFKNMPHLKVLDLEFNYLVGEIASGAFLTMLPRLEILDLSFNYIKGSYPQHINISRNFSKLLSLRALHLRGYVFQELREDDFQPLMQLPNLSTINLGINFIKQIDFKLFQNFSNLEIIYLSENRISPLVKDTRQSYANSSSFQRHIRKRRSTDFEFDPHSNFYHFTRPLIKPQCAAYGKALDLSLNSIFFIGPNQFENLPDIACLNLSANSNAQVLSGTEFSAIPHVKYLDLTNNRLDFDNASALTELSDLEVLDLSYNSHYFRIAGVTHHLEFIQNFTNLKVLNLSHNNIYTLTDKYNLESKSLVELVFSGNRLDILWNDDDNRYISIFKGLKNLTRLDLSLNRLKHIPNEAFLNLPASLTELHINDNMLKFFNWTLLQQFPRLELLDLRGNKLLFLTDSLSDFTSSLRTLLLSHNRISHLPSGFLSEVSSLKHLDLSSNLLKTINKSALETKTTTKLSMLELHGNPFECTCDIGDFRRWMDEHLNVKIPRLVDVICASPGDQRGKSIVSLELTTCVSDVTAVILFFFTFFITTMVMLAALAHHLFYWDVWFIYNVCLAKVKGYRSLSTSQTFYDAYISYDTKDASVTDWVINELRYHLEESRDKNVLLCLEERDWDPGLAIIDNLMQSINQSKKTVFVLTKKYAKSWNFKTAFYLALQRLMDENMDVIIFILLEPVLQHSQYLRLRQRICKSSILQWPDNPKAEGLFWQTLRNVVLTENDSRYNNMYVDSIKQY
Description: TLR8 human PBMC cell-based assay. As to conditions: human PBMCs; TLR8 agonist Compound A 800 nM; 6 hours; cytokines (TNFa and IL12p40) in supernatant; Table 2; read-out: TLR-8 EC50. Here is the method: TLR8 Human Peripheral Blood Mononuclear Cell (PBMC) Cell-Based Assay
Cryopreserved human PBMCs from healthy donors were thawed and resuspended in RPMI-1640 media with L-glutamine (Corning) supplemented with 10% Fetal Bovine Serum (Hyclone) and 1× Penicillin-Streptomycin (Corning). After counting, the cell density was adjusted to 2 million cells/ml and incubated for 1 hour at 37° C., 5% CO2 for recovery. Following the recovery, the cells were plated by adding 50p per well (100,000 cells) to 384-well cell culture plates (Greiner) containing 250 nl of test antagonists in 100% DMSO per well, in a 10 points dose response in quadruplicates. PBMCs were incubated in the presence of antagonists for one hour at 37° C., 5% CO2 before being stimulated with TLR8 agonist. Compound A (Gilead Sciences, U.S. Pat. No. 10,285,990) was used as the TLR8 agonist at a final concentration of 800 nM. PBMCs were incubated in the presence of antagonist and the TLR8 agonist for an additional 6 hours at 37° C., 5% CO2. At the end of the incubation, the cell culture plates were centrifuged at 500 g for 5 min, and the cell culture supernatant was collected. The level of cytokines (TNFa and IL12p40) in the supernatant was measured by electrochemiluminescence immunoassays (Mesoscale Discovery) following manufacturer's recommended protocols. The level of cytokine measured was plotted against the antagonist concentration and fitted to a sigmoidal function to determine the EC50, which are shown below in Table 2.

The IC50 is the midpoint of a concentration-inhibition curve. As a reminder, the EC50 is the concentration that produces a half-maximal response.

cloned hERG potassium channel, sequence (Q12809 whole entry): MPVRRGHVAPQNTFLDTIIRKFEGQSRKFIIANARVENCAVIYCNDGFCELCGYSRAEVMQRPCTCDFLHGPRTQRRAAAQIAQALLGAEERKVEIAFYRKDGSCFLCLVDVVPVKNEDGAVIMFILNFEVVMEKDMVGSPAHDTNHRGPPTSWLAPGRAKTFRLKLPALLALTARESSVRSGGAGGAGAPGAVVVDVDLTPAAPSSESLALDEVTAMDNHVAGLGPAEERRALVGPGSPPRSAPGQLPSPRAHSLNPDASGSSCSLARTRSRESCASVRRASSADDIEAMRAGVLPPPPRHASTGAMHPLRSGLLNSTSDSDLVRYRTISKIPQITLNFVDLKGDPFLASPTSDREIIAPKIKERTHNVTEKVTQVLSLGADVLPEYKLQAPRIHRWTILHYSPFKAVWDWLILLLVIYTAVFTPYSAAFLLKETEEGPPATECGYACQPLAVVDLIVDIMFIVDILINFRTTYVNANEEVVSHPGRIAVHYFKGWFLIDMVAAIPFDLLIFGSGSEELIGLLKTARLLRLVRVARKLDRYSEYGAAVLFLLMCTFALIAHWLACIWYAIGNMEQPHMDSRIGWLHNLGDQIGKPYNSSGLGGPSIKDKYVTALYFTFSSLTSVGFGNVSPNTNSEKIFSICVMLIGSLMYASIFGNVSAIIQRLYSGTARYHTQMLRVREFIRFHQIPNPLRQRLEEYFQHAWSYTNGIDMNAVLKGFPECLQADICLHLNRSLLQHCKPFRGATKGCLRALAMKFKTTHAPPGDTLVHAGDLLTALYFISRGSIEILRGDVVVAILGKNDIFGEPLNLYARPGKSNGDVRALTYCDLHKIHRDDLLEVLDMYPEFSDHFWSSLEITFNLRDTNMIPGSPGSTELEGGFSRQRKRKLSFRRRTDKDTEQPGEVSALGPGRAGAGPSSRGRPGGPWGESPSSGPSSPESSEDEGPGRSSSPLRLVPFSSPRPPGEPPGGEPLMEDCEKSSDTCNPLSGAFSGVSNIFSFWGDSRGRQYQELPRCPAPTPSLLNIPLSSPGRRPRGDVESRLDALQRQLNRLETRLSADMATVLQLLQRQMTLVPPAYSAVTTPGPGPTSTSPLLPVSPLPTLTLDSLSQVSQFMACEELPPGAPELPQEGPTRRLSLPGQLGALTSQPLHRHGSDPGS

In turn, `Cc1cc(-c2[nH]c3ccc(-c4ccc(N5CCNCC5)nc4)cc3c2C(C)C)cn2ncnc12` [Example B, reference compound] showed a 50% inhibitory concentration (IC50) in assay [1] of 5.1 µM.

With `CCc1c(-c2ccc(N3CCNCC3)nc2)[nH]c2cc(-c3cc(C)c4ncnn4c3)ccc12` [Example 23], the EC50 in assay [2] turned out to be 0.0347 µM. `Cc1cc(-c2ccc3c(C)c(-c4ccc(N5CCNCC5)nc4)[nH]c3c2)cc(C)n1` [Example 2, 6-(2,6-dimethylpyridin-4-yl)-3-methyl-2-(6-(piperazin-1-yl)pyridin-3-yl)-1H-indole]: the EC50 in assay [2] was found to be 0.307 µM. In assay [1], this molecule gave a half-inhibitory concentration (IC50) of 7 µM.

As for `Cc1cc(-c2[nH]c3ccc(-c4ccc(N5CCNCC5)nc4)cc3c2C(C)C)cc(C)n1` [Example A, reference compound], the concentration for half-maximal inhibition (IC50) in assay [1] worked out at 4.5 µM. As to `Cc1c(-c2ccc(N3CCNCC3)nc2)[nH]c2cc(-c3cc(C)c4ncnn4c3)ccc12` [Example 4], the concentration giving a half-maximal response (EC50) in assay [2] turned out to be 0.0182 µM. In assay [1], this molecule gave a half-maximal inhibitory concentration (IC50) of 15.5 µM.

For `Cc1c(-c2ccc(N3CCNCC3)nc2)[nH]c2cc(-c3ccc(C#N)c4ncccc34)ccc12` [Example 7], in assay [2], the half-maximal effective concentration (EC50) is 0.0215 µM. The same measure, in the same setting: the same measure for `Cc1cc(-c2ccc3c(C)c(-c4cnc(N5CCNCC5)nc4)[nH]c3c2)cc(C)n1` [Example 1, 6-(2,6-dimethylpyridin-4-yl)-3-methyl-2-(2-(piperazin-1-yl)pyrimidin-5-yl)-1H-indole]: 0.318 µM.
